For one assay, the system named is X16 BTICs. The assay can be described thus: cell proliferation of X16 BTICs. Format: cell-based, human. Conditions: PFI-3 alone. The method, then:
FIG. 1A is a pair of graphs showing the effect of temozolomide (TMZ) on the proliferation of brain-tumor initiating cells (BTICs) obtained from two independent glioblastoma tumors, GBM6 (left) and X16 (right). Relative proliferation is shown for cells treated with 300 micromolar (μM) TMZ or 600 μM TMZ, as well as for untreated cells. *p≤0.05.
BRG1 loss sensitizes BTICs to TMZ in vitro and in vivo: Although the alkylating agent TMZ is front-line chemotherapy in the treatment of GBM, a significant clinical problem is intrinsic or adaptive resistance to TMZ.^63 To evaluate TMZ sensitivity, GBM6 or X16 BTICs were treated with 300 μM or 500 μM TMZ, and cell proliferation was determined. […] Since BRG1 has been implicated in DNA double-strand break repair,^65-67 it was hypothesized that BRG1 loss in BTICs would sensitize BTICs to TMZ. […] To determine whether BRG1-KD sensitized BTICs to TMZ in vivo, animal studies were conducted with control (scrambled shRNA) and BRG1-KD X16 BTICs injected into the flanks of NSG mice. After tumor initiation was confirmed by live animal imaging, mice were treated with TMZ. […] Thus, despite X16 BRG1-KD BTICs producing larger tumors, the tumors were sensitized to TMZ therapy. […]

The test system of a further assay is GBM cells. The assay can be described thus: survival of mice after intracranial injection of GBM cells. Format: in vivo. As to conditions: combination with TMZ, intraperitoneal, 10 mg/kg body weight. The method, then:
FIG. 6 is a graph showing the survival curves (percent survival versus days after treatment) of mice after intracranial injection of glioblastoma (GBM) cells and intraperitoneal injection of temozolomide (TMZ) or combinations of TMZ and a Brahma-related gene-1 bromodomain inhibitors (BRIs): PFI-3 or one of the presently disclosed PFI-3 analogs (PAs) IV-073 or IV-085. Five mice per group were treated with TMZ with or without the BRI (10 milligrams per kilogram (mg/kg) body weight.
TMZ with or without a BRI was also tested in mice after intercranial injection of GBM cells.

Another assay addresses T1, bromodomain of BRG1 (Homo sapiens, UniProt P51532).
T1 construct: The assay involved the use of the bromodomain of BRG1 in MT330 GBM cells; expressed in transfected cells; host or cells: MT330 GBM cells
The assay can be described thus: thermal shift assay of the BRG1 bromodomain in MT330 GBM cells. It counts as binding. As to conditions: 44.5° C. to 55.6° C.; PFI-3 30 μM, IV-073 20 μM, two hours; compared to DMSO. The procedure: FIG. 3 is a series of immunoblot images showing the effects of Brahma-related gene-1 bromodomain inhibitors (BRIs) on the stability of the bromodomain of Brahma-related gene-1 in a thermal assay shift of the bromodomain in glioblastoma cells over a temperature range from 44.5 degrees Celsius (° C.) to 55.6° C. Cells were treated with (middle) PFI-3 (30 micromolar (μM)) for two hours or (right), a PFI-3 analog of the presently disclosed subject matter (IV-073) (20 μM) for two hours. For comparison, control cells treated with dimethyl sulfoxide (DMSO) are shown at […].
To further study the activity of the presently disclosed PFI-3 analogs, a thermal shift assay was employed. The assay involved the use of the bromodomain of BRG1 in MT330 GBM cells at temperatures ranging from 44.5° C. to 55.6° C.

For assay [1], the system named is cancer cell lines (lung, synovial sarcoma, leukemia, and rhabdoid tumor cells). Conditions: panel of cancer cell lines; cited from earlier work.
Assay [2] deals with T2, GFP-tagged bromodomain of BRG1 (GFP-BRG1 BRD) (Homo sapiens, UniProt P51532).
T2 construct: a fluorescently tagged bromodomain of BRG1 expressed in MT330 GBM cells; expressed in transfected cells; host or cells: MT330 GBM cells
T2 sequence (P51532 1453-1564 limits assumed): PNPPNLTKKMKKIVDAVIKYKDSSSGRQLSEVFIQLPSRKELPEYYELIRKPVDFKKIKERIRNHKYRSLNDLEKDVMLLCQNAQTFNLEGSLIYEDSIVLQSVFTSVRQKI
As to the kind of experiment: nuclear localization of fluorescently tagged BRG1 bromodomain in MT330 GBM cells. Format: cell-based. As to conditions: PFI-3 10 or 30 μM; IV-073 5, 10 or 30 μM; compared to DMSO. The source says: FIG. 4 is a series of fluorescence microscopy images showing the effects of Brahma-related gene-1 bromodomain inhibitors (BRIs) on the nuclear localization of a green fluorescent protein (GFP)-tagged bromodomain of Brahma-related gene-1 (GFP-BRG1 BRD).
The effects of PFI-3 and its analogs on the nuclear localization of a fluorescently tagged bromodomain of BRG1 expressed in MT330 GBM cells was studied. In the control samples, the fluorescent bromodomain is localized to the nucleus. However, an inhibitor displaces it from the nucleus and the fluorescence signal markedly decreases because it is degraded in the cytoplasm.

Another assay has as its system BTICs. As to conditions: cited from earlier work.

T1 sequence (P51532 1453-1564 limits assumed): as above

As to `O=C(/C=C/N1C[C@H]2C[C@@H]1CN2c1ccccn1)c1ccccc1O` [PFI-3, (E)-1-(2-hydroxyphenyl)-3-((1R,4R)-5-(pyridin-2-yl)-2,5-diazabicyclo[2.2.1]heptan-2-yl)prop-2-en-1-one], the “effect on BTIC proliferation” value in the assay with X16 BTICs is reported as “only a slight growth inhibitory effect”; with BTICs (PFI-3 alone), “little effect on BTIC proliferation”. Moreover, the animal survival result in the assay with GBM cells is “enhanced animal survival”. For the same molecule, the “stabilization of the BRG1 bromodomain” value on bromodomain of BRG1 is recorded as “stabilizes the BRG1 bromodomain”. In assay [1], the proliferation or tumorgenicity result is “not to inhibit the proliferation or tumorgenicity”. Further, the “displacement of the BRG1 bromodomain from the nucleus” value in assay [2] is listed as “displaces the BRG1 bromodomain from the nucleus”. Besides, in the assay on BTICs, the “stemness of BTICs” value is recorded as “inhibits the stemness of BTICs”. For the same molecule, the “sensitization of BTICs to DNA alkylating agents” value with BTICs (in vitro) is on record as “sensitizes BTICs to DNA alkylating agents”.
